Assay results: patent publication US20030059788A1, “Genetic markers of toxicity, preparation and uses thereof” (priority 2002, published 2003)
Like-named read-outs stand apart in the source and are kept apart here. Numbered stars: 1 amine (or outer) side, 2 acyl side, 3 side chain; on linkers, the order of the positions; unused ones are H or OH. Bridge positions count the residues as written; N and C are the ends. Square brackets hold non-standard residues; d marks the D form. Peptide text beside a SMILES is read from it. I, II: the chains in the order shown. Actinocin(9to1) = Cc1c2oc3c(C)ccc(C(=O)[*:1])c3nc-2c(C(=O)[*:2])c(N)c1=O; NMeV = CN[C@H](C(=O)O)C(C)C; Sar = CNCC(=O)O

What was measured:
HepG2 cells [1] = test: cell viability test (MTT), concentration corresponding to an IC80; format: cell-based
Text: (§1) HepG2 cells are then individually treated with different compounds with different levels of toxicity.

HepG2 cells [2] = test: hybridization of probes from treated HepG2 cells on filters with clones from qualitative screening of p53-induced apoptosis (toxicity index); format: cell-based; conditions: HepG2 cells treated at IC80 concentration, p53 apoptosis filter
Text: as §1

[3] = HepG2 cells, exposure time 18 h
[4] = HepG2 cells, exposure time 18 h, read-out: Concentration (calculated by cell viability test MTT, corresponds to an IC80)

Compound | Concentration (calculated by cell viability test MTT, corresponds to an IC80) (HepG2 cells [1]; [3]) [µg/mL] | IC80 (HepG2 cells [1]; [4]) [nM] | further results
O=c1[nH]cc(F)c(=O)[nH]1 [5 FU] | – | – | IC80 (HepG2 cells [1]): 10000 nM
Cc1c2oc3c(C)ccc(C(=O)N[C@@H]4C(=O)N[C@H](C(C)C)C(=O)N5CCC[C@H]5C(=O)N(C)CC(=O)N(C)[C@@H](C(C)C)C(=O)O[C@@H]4C)c3nc-2c(C(=O)N[C@@H]2C(=O)N[C@H](C(C)C)C(=O)N3CCC[C@H]3C(=O)N(C)CC(=O)N(C)[C@@H](C(C)C)C(=O)O[C@@H]2C)c(N)c1=O [Actinomycin D] (I: T[dV]P[Sar][NMeV] / II: T[dV]P[Sar][NMeV]; ester I:1-I:C, II:1-II:C; linker I:N-II:N via Actinocin(9to1)) | 0.02 | – | –
C[C@H]1C[C@H]2[C@@H]3CCC4=CC(=O)C=C[C@]4(C)[C@@]3(Cl)[C@@H](O)C[C@]2(C)[C@@]1(O)C(=O)CO [Beclomethazone] | – | 50 | –
C[C@@H]1C[C@@H]([C@H](O)CC2CC(=O)NC(=O)C2)C(=O)[C@@H](C)C1 [Cycloheximide] | 5 | – | –
O=C(O)Cc1ccccc1Nc1c(Cl)cccc1Cl [Diclofenac] | – | – | splicing events identical to those induced by p53-related toxicity (toxicity index, FIG. 2) (HepG2 cells [2]): generates more splicing events identical to those induced by p53-related toxicity than aspirin
N#CC(C#N)=NNc1ccc(OC(F)(F)F)cc1 [FCCP] | – | – | IC80 (HepG2 cells [1]): 5000 nM
OO [H2O2] | – | 100000 | –
CCCCCCCCCCCCCC(=O)O[C@@H]1[C@@H](C)[C@@]2(O)[C@@H](C=C(CO)C[C@]3(O)C(=O)C(C)=C[C@@H]23)[C@@H]2C(C)(C)[C@]12OC(C)=O [PMA] | 1 | – | –
CN[C@@H]1C[C@H]2O[C@@](C)([C@@H]1OC)n1c3ccccc3c3c4c(c5c6ccccc6n2c5c31)C(=O)NC4 [Staurosporine] | – | 50 | –
CC(C)[C@@H]1NC(=O)[C@H](C)OC(=O)[C@@H](C(C)C)NC(=O)[C@@H](C(C)C)OC(=O)[C@H](C(C)C)NC(=O)[C@H](C)OC(=O)[C@@H](C(C)C)NC(=O)[C@@H](C(C)C)OC(=O)[C@H](C(C)C)NC(=O)[C@H](C)OC(=O)[C@@H](C(C)C)NC(=O)[C@@H](C(C)C)OC1=O [Valinomycin] | – | 15 | –
